The subject of the assay is Hmex1906 primary human melanoma tumors. The experiment in a line: Hmex1906 primary human melanoma xenograft in nude mice, emergence of resistance under continuous vs intermittent dosing. It is filed as in vivo. The note with it: 5 mg/kg bid. The procedure:
Hmex1906 primary human melanoma tumors are implanted at passage 3 into nude mice. The mice were monitored until the implanted tumors reached 200-400 mm^3. Once this size is reached, the mice are dosed bid with 5 mg/kg of a Raf inhibitor (Compound of Formula II) for 4 weeks. Some of the mice continue treatment while others are subject to an intermittent treatment schedule of 4 weeks of treatment and 2 weeks of drug holiday.
(A xenograft is tissue or cells of one species grown in another, often human tumour cells in immunodeficient mice.)

The values that follow come from patent US11007194B2, “Method of treating a proliferative disease” (Array BioPharma Inc., priority 2011, dated 2021).

On to `COC(=O)N[C@@H](C)CNc1nccc(-c2cn(C(C)C)nc2-c2cc(Cl)cc(NS(C)(=O)=O)c2F)n1` [Compound of Formula II], for which the “emergence of resistance to the BRAF inhibitor” value (continuous dosing, nude mice with Hmex1906 tumors (200-400 mm^3 at start)) was “Resistance emerged in all mice”; the “emergence of resistance to the BRAF inhibitor” value (intermittent schedule: 4 weeks of treatment and 2 weeks of drug holiday, nude mice with Hmex1906 tumors, 5 mg/kg) is listed as “no evidence of resistance”; the “emergence of resistance to the BRAF inhibitor” value (intermittent schedule: 4 weeks of treatment and 2 weeks of drug holiday, nude mice with Hmex1906 tumors, listed as BRAF inhibitor of formula II, 5 mg/kg) is “delays or prevents the onset of resistance”.
